Source: ChEMBL document CHEMBL1121647, “Synthesis and antiviral properties of (Z)-5-(2-bromovinyl)-2'-deoxyuridine” (1981)
Converted amounts (≈) assume the structure as drawn.

Columns and labels:
Assay type in all cases: functional
Human alphaherpesvirus 1 [1] = assay: Minimum inhibitory concentration required to reduce HSV-1 (McIntyre) strain-induced cytopathogenicity in primary rabbit kidney cell cultures
Human alphaherpesvirus 2 [2] = assay: Minimum inhibitory concentration required to reduce HSV-2 (Lyons) strain-induced cytopathogenicity in primary rabbit kidney cell cultures
Human alphaherpesvirus 1 [3] = assay: Minimum inhibitory concentration required to reduce HSV-1 (F) strain-induced cytopathogenicity in primary rabbit kidney cell cultures
Human alphaherpesvirus 2 [4] = assay: Minimum inhibitory concentration required to reduce HSV-2 (196) strain-induced cytopathogenicity in primary rabbit kidney cell cultures
Human alphaherpesvirus 2 [5] = assay: Minimum inhibitory concentration required to reduce HSV-2 (G) strain-induced cytopathogenicity in primary rabbit kidney cell cultures
Human alphaherpesvirus 1 [6] = assay: Minimum inhibitory concentration required to reduce HSV-1 (KOS) strain-induced cytopathogenicity in primary rabbit kidney cell cultures
[7] = test system: Vesicular stomatitis virus; assay: Minimum inhibitory concentration required to reduce vesicular stomatis virus-induced cytopathogenicity in primary rabbit kidney cell cultures
Human alphaherpesvirus 2 [8] = assay: Antiviral activity expressed as minimum HSV-2 (Lyons) strain-induced cytopathogenicity in primary rabbit kidney cell cultures

SMILES | MIC (Human alphaherpesvirus 1 [1]) [mg/L] | MIC (Human alphaherpesvirus 2 [2]) [mg/L] | MIC (Human alphaherpesvirus 1 [3]) [mg/L] | MIC (Human alphaherpesvirus 2 [4]) [mg/L] | MIC (Human alphaherpesvirus 2 [5]) [mg/L] | MIC (Human alphaherpesvirus 1 [6]) [mg/L] | MIC [7] [mg/L] | MIC (Human alphaherpesvirus 2 [8]) [mg/L]
O=c1[nH]c(=O)n([C@H]2C[C@H](O)[C@@H](CO)O2)cc1/C=C\Br | 1 (≈ 3 µM) | 4 (≈ 12 µM) | 2 (≈ 6 µM) | 4 (≈ 12 µM) | 2 (≈ 6 µM) | 4 (≈ 12 µM) | > 200 | –
O=c1[nH]c(=O)n([C@H]2C[C@H](O)[C@@H](CO)O2)cc1/C=C/Br [BRIVUDINE] | 0.01 (≈ 0.03 µM) | – | 0.02 (≈ 0.06 µM) | 0.4 (≈ 1.2 µM) | 0.7 (≈ 2.1 µM) | 0.02 (≈ 0.06 µM) | > 200 | 0.4 (≈ 1.2 µM)
O=c1[nH]c(=O)n([C@H]2C[C@H](O)[C@@H](CO)O2)cc1I [IDOXURIDINE] | 0.2 (≈ 0.565 µM) | – | 0.2 (≈ 0.565 µM) | 0.4 (≈ 1.13 µM) | 0.4 (≈ 1.13 µM) | 0.2 (≈ 0.565 µM) | > 200 | 0.2 (≈ 0.565 µM)
